Data set [1] in a line: Microscopic observation of gel compositions for methylparaben crystalline particles. In kind it is physicochemical. The protocol: Microscopic observations were performed on additional representative batches of brimonidine topical gel compositions and placebo gel compositions containing 1.25% (w/w) carbomer, POBM and other ingredients. The observations have been done on one tube of each batch, with the microscope Axiolab DRBKT Zeiss no. 023733.01 with a camera ICC Zeiss or the microscope Olympus BX60. The microscopic observations were done at 5° C. and room temperature.
Numerous formulations with different ingredients and varying concentrations of the ingredients were made and tested for the presence of the paraben crystals by microscopic observations. The microbiological quality of the formulations was also analyzed by using acceptance-test criteria in preservative-efficacy testing (PET) in the United States Pharmacopeia (USP) and the European Pharmacopoeia (EP).

The nature of data set [2]: Methylparaben concentration in supernatant after centrifugation of a batch with crystals. In kind it is physicochemical. How it is done:
Centrifugation was performed on the batch to collect crystals at the bottom of the centrifuge tube, thus removing them from the supernatant.

Take `COC(=O)c1ccc([O-])cc1.[Na+]` [Na POBM]: the “crystalline particles in formulation” value in data set [1] (methylparaben replaced with Na POBM at 0.3% (w/w)) is “crystalline particles of Na POBM were still observed”.

Consider `COC(=O)c1ccc(O)cc1` [methylparaben], for which the “supernatant methylparaben as share of the 0.3% (w/w) in the original formulation” value in data set [2] (batch originally containing 0.3% (w/w) methylparaben) is on record as “about 66%”. Further, the “methylparaben concentration in the supernatant” value in data set [2] (batch originally containing 0.3% (w/w) methylparaben with crystals, after centrifugation) was “about 0.2 % (w/w)”. Besides, in data set [1] (0.3% (w/w) POBM, addition of 0.1% of EDTA), the recrystallization in formulation result was “immediate recrystallization”.

Source of the values: patent US20120101104A1, “TOPICAL GEL COMPOSITIONS AND METHODS OF USE” (GALDERMA S.A., priority 2010, published 2012).
